≈ marks a conversion by molar mass, not a printed value. Structures can show the parent of a compound that is named as a salt.
tested on: Escherichia coli ATCC 25922; test: Minimal Inhibitory Concentration (MIC) determination, broth microdilution (CLSI M07-A10); assay type: cell-based; conditions: Escherichia coli, ATCC25922, strain Escherichia coli ATCC 25922, 18-24 hours at 35±2° C., lowest concentration for complete growth inhibition (no visible growth), read-out: Escherichia coli growth inhibition MIC
Method in brief: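 Broth microdilution per CLSI M07-A10; compounds in 2-fold serial dilutions; inoculum from 0.5 McFarland suspension diluted 1:200 in broth. Incubated 18-24 h at 35±2° C in ambient air; MIC (μg/mL) taken as lowest concentration giving no visible growth.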

Row | MIC | Structure (SMILES)
1 | 2 µg/mL | O=C(O)C(F)(F)F.O=C1COc2ncc(N3CC(CCNCC4Cc5c(c(F)c6[nH]c([C@@H]7C[C@@H](O)CN7)nc6c5F)C4)OC3=O)nc2N1 (stereo partly drawn) [Example 47, 6-[5-[2-[[4,8-difluoro-2-[(2S,4R)-4-hydroxypyrrolidin-2-yl]-3,5,6,7-tetrahydrocyclopenta[f]benzimidazol-6-yl]methylamino]ethyl]-2-oxo-oxazolidin-3-yl]-4H-pyrazino[2,3-b][1,4]oxazin-3-one; 2,2,2-trifluoroacetic acid]
2 | 0.125 µg/mL (≈ 0.22 µM) | CN[C@@H](C)c1nc2c(F)c3c(c(F)c2[nH]1)CC(CN1CCC2(CC1)CN(c1cnc4c(n1)NC(=O)CO4)C(=O)O2)C3 [Example 38, 6-[8-[[4,8-difluoro-2-[(1S)-1-(methylamino)ethyl]-3,5,6,7-tetrahydrocyclopenta[f]benzimidazol-6-yl]methyl]-2-oxo-1-oxa-3,8-diazaspiro[4.5]decan-3-yl]-4H-pyrazino[2,3-b][1,4]oxazin-3-one]
3 | 0.5 µg/mL (≈ 0.881 µM) | CN[C@@H](CO)c1nc2cc3c(c(F)c2o1)CC(CN1CCC2(CC1)CN(c1cnc4c(n1)NC(=O)CO4)C(=O)O2)C3 (single isomer, unassigned) [Example 145]
4 | 0.125 µg/mL (≈ 0.233 µM) | CNCc1nc2c(F)c3c(cc2o1)CC(CN1CCC2(CC1)CN(c1cnc4c(n1)NC(=O)CO4)C(=O)O2)C3 (centres unmarked) [Example 93, 6-[8-[[4-fluoro-2-(methylaminomethyl)-6,7-dihydro-5H-cyclopenta[f][1,3]benzoxazol-6-yl]methyl]-2-oxo-1-oxa-3,8-diazaspiro[4.5]decan-3-yl]-4H-pyrazino[2,3-b][1,4]oxazin-3-one]
5 | 0.25 µg/mL | CNCCc1nc2c(F)c3c(c(F)c2n1C)CC(CN1CCC2(CC1)CN(c1cnc4c(n1)NC(=O)CO4)C(=O)O2)C3.O=C(O)C(F)(F)F (centres unmarked) [Example 20, 6-[8-[[4,8-difluoro-1-methyl-2-[2-(methylamino)ethyl]-6,7-dihydro-5H-cyclopenta[f]benzimidazol-6-yl]methyl]-2-oxo-1-oxa-3,8-diazaspiro[4.5]decan-3-yl]-4H-pyrazino[2,3-b][1,4]oxain-3-one; 2,2,2-trifluoroacetic acid]
6 | 2 µg/mL (≈ 3.27 µM) | CC(=O)N(C)CCn1nc2c(F)c3c(c(F)c2n1)CC(CN1CCC2(CC1)CN(c1cnc4c(n1)NC(=O)CO4)C(=O)O2)C3 [Example 154, N-[2-[4,8-difluoro-6-[[2-oxo-3-(3-oxo-4H-pyrazino[2,3-b][1,4]oxazin-6-yl)-1-oxa-3,8-diazaspiro[4.5]decan-8-yl]methyl]-6,7-dihydro-5H-cyclopenta[f]benzotriazol-2-yl]ethyl]-N-methyl-acetamide]
7 | 0.125 µg/mL (≈ 0.225 µM) | CNCc1nc2c(F)c3c(c(F)c2[nH]1)CC(CN1CCC2(CC1)CN(c1cnc4c(n1)NC(=O)CO4)C(=O)O2)C3 [Example 9, 6-[8-[[4,8-Difluoro-2-(methylaminomethyl)-3,5,6,7-tetrahydrocyclopenta[f]benzimidazol-6-yl]methyl]-2-oxo-1-oxa-3,8-diazaspiro[4.5]decan-3-yl]-4H-pyrazino[2,3-b][1,4]oxazin-3-one]
8 | 0.5 µg/mL (≈ 0.91 µM) | O=C1COc2ncc(N3CC4(CCN(CC5Cc6cc7nn(C8CNC8)nc7c(F)c6C5)CC4)OC3=O)nc2N1 (single isomer, unassigned) [Example 109, 6-[2-oxo-8-[[2-(azetidin-3-yl)-8-fluoro-6,7-dihydro-5H-cyclopenta[f]benzotriazol-6-yl]methyl]-1-oxa-3,8-diazaspiro[4.5]decan-3-yl]-4H-pyrazino[2,3-b][1,4]oxazin-3-one]
9 | 0.25 µg/mL | CN[C@H](CO)c1nc2c(F)c3c(c(F)c2[nH]1)CC(CN1CCC2(CC1)CN(c1cnc4c(n1)NC(=O)CO4)C(=O)O2)C3.O=C(O)C(F)(F)F [Example 56, 6-[8-[[4,8-difluoro-2-[(1S)-2-hydroxy-1-(methylamino)ethyl]-3,5,6,7-tetrahydrocyclopenta[f]benzimidaozl-6-yl]methyl]-2-oxo-1-oxa-3,8-diazaspiro[4.5]decan-3-yl]-4H-pyrazino[2,3-b][1,4]oxazin-3-one; 2,2,2-trifluoroacetic acid]
10 | 1 µg/mL (≈ 1.53 µM) | O=C1COc2ncc(N3CC4(CCN(CC5Cc6c(c(F)c7c(nnn7CCNC(=O)[C@H]7CCCN7)c6F)C5)CC4)OC3=O)nc2N1 (stereo partly drawn) [Example 162, (2R)-N-[2-[4,8-difluoro-6-[[2-oxo-3-(3-oxo-4H-pyrazino[2,3-b][1,4]oxazin-6-yl)-1-oxa-3,8-diazaspiro[4.5]decan-8-yl]methyl]-6,7-dihydro-5H-cyclopenta[f]benzotriazol-1-yl]ethyl]pyrrolidine-2-carboxamide]

same assay, conditions: strain Escherichia coli ATCC 25922, 18-24 hours at 35±2° C., lowest concentration for complete growth inhibition (no visible growth)

Row | Escherichia coli growth inhibition MIC | Structure (SMILES)
11 | 0.125 µg/mL | O=C1COc2ncc(N3CC4(CCN(CC5Cc6cc7nc([C@@H]8CCN8)oc7c(F)c6C5)CC4)OC3=O)nc2N1 (stereo partly drawn) [Example 107, 6-[8-[[2-[(2S)-azetidin-2-yl]-8-fluoro-6,7-dihydro-5H-cyclopenta[f][1,3]benzoxazol-6-yl]methyl]-2-oxo-1-oxa-3,8-diazaspiro[4.5]decan-3-yl]-4H-pyrazino[2,3-b][1,4]oxazin-3-one]
12 | 0.125 µg/mL | CNCCn1nc2cc(F)c3c(c2n1)CC(CN1CCC2(CC1)CN(c1cnc4c(n1)NC(=O)CO4)C(=O)O2)C3 (single isomer, unassigned) [Example 87, 6-[8-[[5-fluoro-2-[2-(methylamino)ethyl]-7,8-dihydro-6H-cyclopenta[e]benzotriazol-7-yl]methyl]-2-oxo-1-oxa-3,8-diazaspiro[4.5]decan-3-yl]-4H-pyrazino[2,3-b][1,4]oxazin-3-one]

same assay, conditions: strain Escherichia coli ATCC 25922, 18-24 hours at 35±2° C., lowest concentration for complete growth inhibition (no visible growth), dihydrochloride

Row | Structure (SMILES) | Escherichia coli growth inhibition MIC
13 | NCCn1nc2cc3c(c(F)c2n1)CC(CN1CCC2(CC1)CN(c1ccc4c(n1)NC(=O)CO4)C(=O)O2)C3 (single isomer, unassigned) [Example 133, 6-[2-oxo-8-[[2-(2-aminoethyl)-8-fluoro-6,7-dihydro-5H-cyclopenta[f]benzotriazol-6-yl]methyl]-1-oxa-3,8-diazaspiro[4.5]decan-3-yl]-4H-pyrido[3,2-b][1,4]oxazin-3-one dihydrochloride] | 1 µg/mL

same assay, conditions: strain Escherichia coli ATCC 25922, 18-24 hours at 35±2° C., lowest concentration for complete growth inhibition (no visible growth), formic acid

Row | Escherichia coli growth inhibition MIC | Structure (SMILES)
14 | 0.125 µg/mL | O=C1COc2ncc(N3CC4(CCN(CC5Cc6c(c(F)c7c(nnn7C7CNC7)c6F)C5)CC4)OC3=O)nc2N1.O=CO (single isomer, unassigned) [Example 121, 6-[8-[[1-(azetidin-3-yl)-4,8-difluoro-6,7-dihydro-5H-cyclopenta[f]benzotriazol-6-yl]methyl]-2-oxo-1-oxa-3,8-diazaspiro[4.5]decan-3-yl]-4H-pyrazino[2,3-b][1,4]oxazin-3-one; formic acid]

Reference: patent publication US20240252506A1 (Hoffmann-La Roche Inc., priority 2021, published 2024)
